Data taken from US8765748B2, “Indazolyl, benzimidazolyl, benzotriazolyl substituted indolinone derivatives as kinase inhibitors useful in the treatment of cancer” (University Health Network, priority 2007, dated 2014).

Tests used:
Type in all cases: biochemical
[1] = biological target: T1, Aurora A (Homo sapiens, UniProt O14965); assay: Aurora A Inhibition Assay (Z-Lyte); settings: for inhibition at 10 µM: 10 μM compound, read-out: Aurora A relative inhibition percentage at a dose of 10 μM; for IC50: 20 μM ATP, 12 nM Aurora A, read-out: Aurora A IC50 Ranges
T1 construct: purchased Invitrogen PV3612
T1 sequence (O14965 1-403): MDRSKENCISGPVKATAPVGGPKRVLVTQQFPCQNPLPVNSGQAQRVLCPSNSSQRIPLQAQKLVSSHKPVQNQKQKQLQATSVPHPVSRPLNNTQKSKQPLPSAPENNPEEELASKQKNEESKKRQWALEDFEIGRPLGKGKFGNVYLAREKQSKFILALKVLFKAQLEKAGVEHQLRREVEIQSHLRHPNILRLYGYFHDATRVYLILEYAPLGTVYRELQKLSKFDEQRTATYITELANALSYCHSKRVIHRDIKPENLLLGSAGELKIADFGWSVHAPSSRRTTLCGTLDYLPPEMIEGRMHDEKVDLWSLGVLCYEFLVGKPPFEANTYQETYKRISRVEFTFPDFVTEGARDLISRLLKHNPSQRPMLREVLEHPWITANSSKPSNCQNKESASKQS
Procedure: (§1) Aurora A inhibition was determined using the Z-Lyte assay kit from Invitrogen. The assay was performed using the recommended manufacturer's instructions with 20 μM ATP and 12 nM Aurora A (Invitrogen cat #PV3612). The % inhibition values were determined according to the manufacturer's directions and IC50 values were obtained using a non-linear 4 point logistic curve fit (XLfit4, IDBS)

[2] = biological target: T2, human PLK4 (Homo sapiens, UniProt O00444); assay: PLK4 Inhibition Assay (indirect ELISA); settings: 15 μM ATP, 4 nM GST-PLK4; read-out: PLK4 IC50 Ranges
T2 construct: amino terminal GST fusion of residues 1-391 of human PLK4; made in house; host or cells: E. coli
T2 sequence (O00444 1-391): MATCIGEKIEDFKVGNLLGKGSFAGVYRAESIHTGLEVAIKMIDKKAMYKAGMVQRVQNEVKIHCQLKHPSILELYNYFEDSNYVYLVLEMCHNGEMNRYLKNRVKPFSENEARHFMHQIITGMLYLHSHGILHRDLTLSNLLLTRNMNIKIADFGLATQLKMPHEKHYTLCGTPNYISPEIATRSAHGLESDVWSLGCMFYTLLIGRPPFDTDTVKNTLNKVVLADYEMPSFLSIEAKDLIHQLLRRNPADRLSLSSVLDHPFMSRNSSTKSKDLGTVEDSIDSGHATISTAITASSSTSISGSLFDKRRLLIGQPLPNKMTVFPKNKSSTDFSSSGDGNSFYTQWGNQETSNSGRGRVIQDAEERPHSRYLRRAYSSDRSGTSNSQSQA
In short: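 IC50 values, from 4-point logistic fitting, reflect remaining activity measured by indirect ELISA. Enzyme was GST-PLK4 treated with lambda phosphatase and given a 15-minute pre-incubation with compound before ATP start.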

[3] = biological target: T3, PLK1 (Homo sapiens, UniProt P53350); assay: PLK1 Inhibition Assay (Z-Lyte); settings: for inhibition at 10 µM: 10 μM compound, read-out: PLK1 relative inhibition percentage at a dose of 10 μM; for IC50: 25 μM ATP, 8 nM PLK1, read-out: PLK1 IC50 Ranges
T3 construct: purchased Invitrogen PV3501
Procedure: PLK1 inhibition was determined using the Z-Lyte assay kit from Invitrogen (cat #PV3802). […] The % inhibition values were determined according to the manufacturer's directions and IC50 values were obtained using a non-linear 4 point logistic curve fit (XLfit4, IDBS)

[4] = biological target: T4, Aurora B (Homo sapiens, UniProt Q96GD4); assay: Aurora B Inhibition Assay (Z-Lyte); settings: 128 μM ATP, 28 nM Aurora B; read-out: Aurora B IC50 Ranges
T4 construct: purchased Invitrogen PV3970
Procedure: as §1, with “Aurora B” for “Aurora A”, “with 128” for “with 20”, “and 28” for “and 12”, “cat #PV3970).” for “cat #PV3612).”

[5] = biological target: TRKA (Homo sapiens, UniProt P04629); assay: Kinase Selectivity Assay (CEREP, HTRF); set-up: purchased CEREP, France (contract assay service); settings: read-out: % Inhibition at 10 μM Concentration, TRKA
Procedure: kinase, ROCK2, RSK2, Src kinase, Syk, and TRKA. The % Inhibition was determined

[6] = biological target: T5, PLK2 (Homo sapiens, UniProt Q9NYY3); assay: PLK2 Inhibition Assay (Z-Lyte); settings: for inhibition at 10 µM: 10 μM compound, read-out: PLK2 relative inhibition percentage at a dose of 10 μM; for IC50: 60 μM ATP, 133 nM PLK2, read-out: PLK2 IC50 Ranges
T5 construct: purchased Invitrogen PV4204
Procedure: as §1, with “PLK2” for “Aurora A”, “Invitrogen (cat #PV3802).” for “Invitrogen.”, “60” for “20”, “133” for “12”, “#PV4204).” for “#PV3612).”

T3 sequence (P53350 whole entry): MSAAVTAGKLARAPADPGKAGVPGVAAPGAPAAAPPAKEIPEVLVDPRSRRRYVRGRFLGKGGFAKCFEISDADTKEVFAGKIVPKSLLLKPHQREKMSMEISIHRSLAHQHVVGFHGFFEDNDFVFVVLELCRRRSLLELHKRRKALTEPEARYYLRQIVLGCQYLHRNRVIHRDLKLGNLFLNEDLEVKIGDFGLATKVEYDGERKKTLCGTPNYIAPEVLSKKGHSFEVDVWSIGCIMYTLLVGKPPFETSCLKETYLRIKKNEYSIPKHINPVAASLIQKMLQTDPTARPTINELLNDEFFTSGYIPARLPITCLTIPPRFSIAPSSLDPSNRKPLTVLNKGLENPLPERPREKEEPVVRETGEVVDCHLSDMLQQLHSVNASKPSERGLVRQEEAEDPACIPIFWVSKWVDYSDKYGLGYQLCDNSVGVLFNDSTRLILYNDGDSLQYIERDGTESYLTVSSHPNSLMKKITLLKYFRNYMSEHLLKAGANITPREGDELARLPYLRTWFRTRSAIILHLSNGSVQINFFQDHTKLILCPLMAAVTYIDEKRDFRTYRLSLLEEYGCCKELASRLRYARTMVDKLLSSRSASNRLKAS
T4 sequence (Q96GD4 whole entry): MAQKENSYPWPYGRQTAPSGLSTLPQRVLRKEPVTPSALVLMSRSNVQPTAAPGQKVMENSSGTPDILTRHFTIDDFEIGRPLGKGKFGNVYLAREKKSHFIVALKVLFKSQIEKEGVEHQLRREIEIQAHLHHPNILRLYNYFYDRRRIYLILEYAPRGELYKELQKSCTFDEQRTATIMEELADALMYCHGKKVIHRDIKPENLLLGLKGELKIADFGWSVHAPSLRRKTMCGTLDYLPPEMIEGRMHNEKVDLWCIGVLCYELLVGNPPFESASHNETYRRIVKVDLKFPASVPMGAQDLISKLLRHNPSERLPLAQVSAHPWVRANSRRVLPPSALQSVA
T5 sequence (Q9NYY3 whole entry): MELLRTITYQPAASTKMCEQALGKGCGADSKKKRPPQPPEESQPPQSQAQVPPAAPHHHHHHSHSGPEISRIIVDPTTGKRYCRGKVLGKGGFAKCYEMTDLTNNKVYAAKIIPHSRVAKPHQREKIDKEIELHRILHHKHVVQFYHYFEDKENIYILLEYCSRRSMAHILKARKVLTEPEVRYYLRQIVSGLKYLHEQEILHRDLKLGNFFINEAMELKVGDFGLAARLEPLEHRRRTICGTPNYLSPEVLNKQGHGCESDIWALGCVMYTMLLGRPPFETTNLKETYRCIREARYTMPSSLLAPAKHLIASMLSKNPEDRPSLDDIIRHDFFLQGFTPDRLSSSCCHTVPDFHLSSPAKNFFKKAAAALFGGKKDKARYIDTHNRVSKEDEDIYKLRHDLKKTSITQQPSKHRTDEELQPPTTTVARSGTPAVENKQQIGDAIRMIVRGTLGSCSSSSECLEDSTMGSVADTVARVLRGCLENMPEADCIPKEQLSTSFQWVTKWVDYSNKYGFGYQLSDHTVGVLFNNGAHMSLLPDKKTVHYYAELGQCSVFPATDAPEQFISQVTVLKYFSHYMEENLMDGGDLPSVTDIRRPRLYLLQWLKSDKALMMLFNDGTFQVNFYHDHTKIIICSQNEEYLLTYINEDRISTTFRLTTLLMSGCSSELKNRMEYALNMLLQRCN
TRKA, sequence (P04629 33-796): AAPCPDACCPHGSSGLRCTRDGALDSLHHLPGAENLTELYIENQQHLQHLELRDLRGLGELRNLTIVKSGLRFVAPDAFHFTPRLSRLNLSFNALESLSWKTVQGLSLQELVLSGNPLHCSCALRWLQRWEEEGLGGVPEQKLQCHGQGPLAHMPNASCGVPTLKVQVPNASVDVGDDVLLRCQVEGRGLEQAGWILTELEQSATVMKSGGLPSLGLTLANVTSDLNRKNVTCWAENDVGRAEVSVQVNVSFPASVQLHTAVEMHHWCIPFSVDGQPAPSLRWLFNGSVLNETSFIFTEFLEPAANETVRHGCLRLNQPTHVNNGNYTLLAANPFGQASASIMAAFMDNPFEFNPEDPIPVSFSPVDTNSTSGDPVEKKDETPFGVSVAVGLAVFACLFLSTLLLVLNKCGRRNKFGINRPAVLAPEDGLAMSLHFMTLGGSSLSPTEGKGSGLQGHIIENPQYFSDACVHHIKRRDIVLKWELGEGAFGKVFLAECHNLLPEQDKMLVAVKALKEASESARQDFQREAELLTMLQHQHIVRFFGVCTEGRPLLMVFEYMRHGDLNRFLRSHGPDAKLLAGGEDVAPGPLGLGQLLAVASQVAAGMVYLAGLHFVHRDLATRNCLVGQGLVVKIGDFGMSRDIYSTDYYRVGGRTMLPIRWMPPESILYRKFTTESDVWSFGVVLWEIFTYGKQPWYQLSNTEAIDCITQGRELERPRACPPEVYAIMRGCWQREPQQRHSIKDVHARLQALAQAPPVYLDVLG

inhibition at 10 µM [6] [%] | Compound | inhibition at 10 µM [1] [%] | IC50 [2] [µM] | inhibition at 10 µM [3] [%] | IC50 [4] [µM] | IC50 [1] [µM] | inhibition at 10 µM [5] [%] | IC50 [6] [µM] | IC50 [3] [µM]
 | CN(C)Cc1ccc(/C=C/c2n[nH]c3cc(C=C4C(=O)Nc5ccccc54)ccc23)cc1 (mixture of isomers) [Example A106, (E and Z)-3-[(3-{(E)-2-[4-((dimethylamino)methyl)-phenyl]-ethenyl}-1H-indazol-6-yl)methylidene]-1,3-dihydro-2H-indol-2-one 2,2,2-trifluoroacetate] | > 50 | < 5 | < 50 | < 5 |  |  |  | 
< 50 | O=C1Nc2ccccc2/C1=C\c1ccc2c(/C=C/c3ccccc3Cl)n[nH]c2c1 [Example A60, (E)-3-((3-((E)-2-chlorostyryl)-1H-indazol-6-yl)methylene)indolin-2-one] |  | < 5 | < 50 | < 5 | < 5 | 75 |  | 
 | O=C1Nc2ccccc2C1=Cc1ccc2c(/C=C/c3ccccn3)n[nH]c2c1 (mixture of isomers) [Example A41, (E and Z)-3-((3-((E)-2-(pyridin-2-yl)vinyl)-1H-indazol-6-yl)methylene)indolin-2-one] |  | < 5 |  | < 5 | < 5 | 99 | > 50 | > 50
 | COc1ccc2c(c1)C(=Cc1ccc3c(-c4ccc(N5CCN(C)CC5)nc4)n[nH]c3c1)C(=O)N2 (mixture of isomers) [Example A97, (E and Z)-5-methoxy-3-((3-(6-(4-methylpiperazin-1-yl)pyridin-3-yl)-1H-indazol-6-yl)methylene)indolin-2-one] |  | < 5 |  | < 5 |  | 93 |  | 
 | O=C1Nc2ccccc2/C1=C\c1ccc2[nH]nnc2c1 [Example A1, (E)-3-((1H-benzo[d][1,2,3]triazol-5-yl)methylene)indolin-2-one] | < 50 | < 5 |  | < 5 |  | -13 | 5 to 50 | 5 to 50
 | O=C1Nc2ccccc2/C1=C\c1ccc2cn[nH]c2c1 [Example A5, (E)-3-((1H-indazol-6-yl)methylene)indolin-2-one] |  |  |  | < 5 | < 5 | 60 | 5 to 50 | 5 to 50
< 50 | O=C1Nc2ncc(Br)cc2C1=Cc1ccc2c(/C=C/c3ccncc3)n[nH]c2c1 (mixture of isomers) [Example A109, (E and Z)-5-bromo-3-((3-((E)-2-(pyridin-4-yl)vinyl)-1H-indazol-6-yl)methyl-ene)-1H-pyrrolo[2,3-b]pyridin-2(3H)-one] |  | < 5 | < 50 | < 5 | < 5 |  |  | 

Compound | inhibition at 10 µM [6] [%] | inhibition at 10 µM [1] [%] | IC50 [2] [µM] | inhibition at 10 µM [3] [%] | IC50 [4] [µM] | IC50 [1] [µM] | inhibition at 10 µM [5] [%] | IC50 [6] [µM] | IC50 [3] [µM]
CN1CCN(c2ccc(/C=C/c3n[nH]c4cc(C=C5C(=O)Nc6ccccc65)ccc34)cn2)CC1 (mixture of isomers) [Example A108, (E and Z)-3-((3-((E)-2-(6-(4-methylpiperazin-1-yl)pyridin-3-yl)vinyl)-1H-indazol-6-yl)methylene)indolin-2-one] | < 50 |  | < 5 | < 50 | < 5 | < 5 |  |  | 
